Results as given in ChEMBL document CHEMBL3856234, “Development of Multifunctional Pyrimidinylthiourea Derivatives as Potential Anti-Alzheimer Agents” (J Med Chem, 2016).
In brackets after ≈: the same amount, converted by molar mass. Activity calls are given as the source filed them. The calls are words filed in the database; no cut-off is given here.

Experiments:
[1] = biological target: T1, Acetylcholinesterase (Rattus norvegicus) (UniProt P37136); assay: Inhibition of rat cortex AChE at 40 uM using acetylthiocholine iodide as substrate measured after 20 mins by Ellman's method relative to control
T1 sequence (whole entry): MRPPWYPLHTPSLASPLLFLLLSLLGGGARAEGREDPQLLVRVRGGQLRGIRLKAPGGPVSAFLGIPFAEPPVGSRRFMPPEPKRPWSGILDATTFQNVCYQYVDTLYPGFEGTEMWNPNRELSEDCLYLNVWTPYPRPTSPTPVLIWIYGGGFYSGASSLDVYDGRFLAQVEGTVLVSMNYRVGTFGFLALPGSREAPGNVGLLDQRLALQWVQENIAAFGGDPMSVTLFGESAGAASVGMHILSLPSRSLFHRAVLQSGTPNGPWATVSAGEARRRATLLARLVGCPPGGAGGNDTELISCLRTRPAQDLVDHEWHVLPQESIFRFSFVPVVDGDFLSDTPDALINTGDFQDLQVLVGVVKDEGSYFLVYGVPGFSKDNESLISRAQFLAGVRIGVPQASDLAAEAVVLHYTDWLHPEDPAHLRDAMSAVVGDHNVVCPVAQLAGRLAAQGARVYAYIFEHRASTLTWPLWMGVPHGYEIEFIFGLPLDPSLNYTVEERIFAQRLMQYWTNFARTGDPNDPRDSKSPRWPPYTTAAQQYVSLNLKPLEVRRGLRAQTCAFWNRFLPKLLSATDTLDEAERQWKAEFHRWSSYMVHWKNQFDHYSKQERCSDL

Acetylcholinesterase = biological target: T2, Acetylcholinesterase (Rattus norvegicus, UniProt P37136); assay: Inhibition of rat cortex AChE using acetylthiocholine iodide as substrate measured after 20 mins by Ellman's method
T2 sequence (P37136 whole entry): T1 sequence (whole entry)

[2] = Inhibition of rat serum BuChE using butyrylthiocholine as substrate measured after 20 mins by Ellman's method
Rattus norvegicus [3] = species on record: Rattus norvegicus; assay: Inhibition of rat serum BuChE at 40 uM using butyrylthiocholine as substrate measured after 20 mins by Ellman's method relative to control
Rattus norvegicus [4] = species on record: Rattus norvegicus; assay: Selectivity index, ratio of IC50 for rat serum BuChE to IC50 for rat cortex AChE
[5] = Antioxidant activity assessed as trolox equivalent of AAPH radical scavenging activity preincubated for 10 mins followed by AAPH challenge measured every min for 180 mins by ORAC-FL assay; assay type: functional
[6] = Permeability of the compound in PBS/EtOH (7:3) buffer measured after 10 hrs by PAMPA assay; assay type: ADME; settings: read-out: Peff
[7] = Cytotoxicity against human SH-SY5Y cells assessed as reduction in cell viability at 10 and 30 uM measured after 24 hrs by MTT assay; assay type: toxicity, cell-based
[8] = Cytotoxicity against human SH-SY5Y cells assessed as reduction in cell viability at 100 uM measured after 24 hrs by MTT assay; assay type: toxicity, cell-based
[9] = Solubility of the compound in water measured after 24 hrs by HPLC analysis; assay type: physicochemical
[10] = Inhibition of cupric ion-induced aggregation of amyloid beta (1 to 42) (unknown origin) at compound:amyloid beta (1 to 42):Cu2+ ratio of 2:1:1 measured after 24 hrs by TEM analysis

Row | SMILES | inhibition [1] | IC50 (Acetylcholinesterase) | further results
1 | CCNC(=S)Nc1cc(N2CCOCC2)ncn1 | 54.1% | 23200 nM | –
2 | CCNC(=S)Nc1cc(-n2cccc2)ncn1 | 13.8% | > 40000 nM | –
3 | CNC(=S)Nc1cc(-n2cccn2)ncn1 | 46% | – | –
4 | CCNC(=S)Nc1cc(-n2cnc(C(F)(F)F)c2)ncn1 | – | 957 nM | –
5 | CCCc1cc(-n2cccn2)ncn1 | 9.88% | – | –
6 | CCNCc1cn(-c2cc(NC(=S)NCC)ncn2)cn1 | – | 342 nM | IC50 [2]: > 40 µM; inhibition (Rattus norvegicus [3]): 21.5%; Ratio IC50 (Rattus norvegicus [4]): > 117; Activity (umolequiv/umol) [5]: 1.33
7 | CCNC(=S)Nc1cc(-n2cnc(C=O)c2)ncn1 | – | 166 nM | IC50 [2]: > 40 µM; inhibition (Rattus norvegicus [3]): 4.63%; Ratio IC50 (Rattus norvegicus [4]): > 241; Activity (umolequiv/umol) [5]: 0.31
8 | CCNC(=S)Nc1cc(-n2cnc(CN3CCCCCC3)c2)ncn1 | – | 121 nM | IC50 [2]: 7.19 µM; Ratio IC50 (Rattus norvegicus [4]): 59; Activity (umolequiv/umol) [5]: 1.24; Papp at 10 h [6]: 5.3 ×10⁻⁶ cm/s
9 | c1ccc(CNc2cc(-n3cccn3)ncn2)cc1 | 10.8% | – | –
10 | CCNC(=S)Nc1cc(-n2cnc(CN3CCOCC3)c2)ncn1 | – | 304 nM | IC50 [2]: > 40 µM; inhibition (Rattus norvegicus [3]): 13.3%; Ratio IC50 (Rattus norvegicus [4]): > 132; Activity (umolequiv/umol) [5]: 1.48; Papp at 10 h [6]: 0.35 ×10⁻⁶ cm/s
11 | CCNC(=S)Nc1cc(-n2ccnc2C)ncn1 | – | 6100 nM | –
12 | CCNC(=S)Nc1nccc(-n2ccnc2)n1 | 64.9% | 8450 nM | –
13 | S=C(Nc1cc(-n2cccn2)ncn1)NC1CCCCC1 | 11.2% | – | –
14 | CCNC(=S)Nc1cc(-n2cnc(I)c2)ncn1 | – | 636 nM | –
15 | CCNC(=S)Nc1cc(-n2ccnc2CC)ncn1 | – | 6700 nM | –
16 | CNCCCN1c2ccccc2CCc2ccccc21 [DESIPRAMINE] | – | – | Papp at 10 h [6]: 16.6 ×10⁻⁶ cm/s
17 | CCNC(=S)Nc1ncnc(-n2ccnc2)c1C | 45.9% | > 40000 nM | –
18 | CCNC(=S)Nc1cc(-n2cnc(CN(C)Cc3ccccc3)c2)ncn1 [listing 1 of 2 here] | – | – | Ratio IC50 (Rattus norvegicus [4]): 84; Activity (umolequiv/umol) [5]: 1.25
19 | CCNC(=S)Nc1cc(-n2cnc(CN(C)C)c2)ncn1 | – | 153 nM | IC50 [2]: > 40 µM; inhibition (Rattus norvegicus [3]): 7.02%; Ratio IC50 (Rattus norvegicus [4]): > 261; Activity (umolequiv/umol) [5]: 1.17; Papp at 10 h [6]: 3 ×10⁻⁶ cm/s
20 | CCNC(=S)Nc1cc(-n2ccnc2)ncn1 | 72.8% | 1590 nM | –

Row | SMILES | inhibition [1] | IC50 (Acetylcholinesterase) | further results
21 | CCNC(=S)Nc1cc(-n2cnc(C)c2)ncn1 | – | 3250 nM | –
22 | S=C(NCc1ccccc1)Nc1cc(-n2cccn2)ncn1 | 17.3% | – | –
23 | CC(=O)Nc1cc(-n2cccn2)ncn1 | 5.09% | – | –
24 | Nc1cc(-n2cccn2)ncn1 | 18.9% | – | –
25 | CCNC(=S)Nc1cc(N2CCN(C)CC2)ncn1 | 70.1% | 3260 nM | –
26 | CCNC(=S)Nc1cc(N2CCCC2)ncn1 | 39.2% | > 40000 nM | –
27 | CCNC(=S)Nc1cc(-n2cnc(Cl)c2)ncn1 | – | 615 nM | –
28 | CCNC(=S)Nc1cc(-n2cnc(CO)c2)ncn1 | – | 995 nM | –
29 | C/C=C1\[C@H]2C=C(C)C[C@]1(N)c1ccc(=O)[nH]c1C2 [HUPERZINE A] | – | 82 nM | IC50 [2]: 36.4 µM; Ratio IC50 (Rattus norvegicus [4]): 444; Activity [7]: Non-Toxic; Activity [8]: Non-Toxic
30 | COc1cc2c(cc1OC)C(=O)C(CC1CCN(Cc3ccccc3)CC1)C2 (centres undefined) [DONEPEZIL] | – | – | Activity [7]: Non-Toxic; Activity [8]: Toxic
31 | CCNC(=S)Nc1cc(-n2cnc(CN(CC)CC)c2)ncn1 | – | 115 nM | IC50 [2]: > 40 µM; inhibition (Rattus norvegicus [3]): 20.2%; Ratio IC50 (Rattus norvegicus [4]): > 348; Activity (umolequiv/umol) [5]: 1.31; Papp at 10 h [6]: 1 ×10⁻⁶ cm/s
32 | CCNC(=S)Nc1cc(-n2cnc(CN(C)Cc3ccccc3)c2)ncn1 [listing 2 of 2 here] | – | 181 nM | IC50 [2]: 15.2 µM; Papp at 10 h [6]: 8.8 ×10⁻⁶ cm/s; solubility at 24 h [9]: 58 µg/mL (≈ 152 µM)
33 | CCOc1cc(-n2cccn2)ncn1 | 11.8% | – | –
34 | CCNC(=S)Nc1cc(-n2cnc(C(=O)OC)c2)ncn1 | – | 347 nM | –
35 | CCNC(=S)Nc1cc(-n2cnc(CN(C)Cc3ccccc3)c2)ncn1.Cl | – | – | solubility at 24 h [9]: 2740 µg/mL
36 | S=C(NCc1cccc(Cl)c1)Nc1cc(-n2cccn2)ncn1 | 0% | – | –
37 | CCCCNC(=S)Nc1cc(-n2cccn2)ncn1 | 66.6% | 23400 nM | –
38 | CC(C)NC(=S)Nc1cc(-n2cccn2)ncn1 | 36.2% | – | –
39 | CCCNC(=S)Nc1cc(-n2cccn2)ncn1 | 64% | 22000 nM | –
40 | CCNC(=S)Nc1cc(-n2cnc(Br)c2)ncn1 | – | 975 nM | –

Row | SMILES | inhibition [1] | IC50 (Acetylcholinesterase) | further results
41 | CCNC(=S)Nc1cc(-n2cnc([N+](=O)[O-])c2)ncn1 | – | 170 nM | –
42 | CCNC(=S)Nc1cc(-n2cnc(CN3CCCC3)c2)ncn1.Cl | – | – | solubility at 24 h [9]: 19500 µg/mL
43 | CCNC(=S)Nc1nc2c(c(-n3ccnc3)n1)CCC2 | 24.4% | > 40000 nM | –
44 | Oc1c(I)cc(Cl)c2cccnc12 | – | – | inhibition [10]: Active
45 | CCNC(=S)Nc1cc(NCc2ccccc2)ncn1 | 10.9% | > 40000 nM | –
46 | CCNC(=S)Nc1cc(-n2cnc(CNCc3ccccc3)c2)ncn1 | – | 274 nM | IC50 [2]: > 40 µM; inhibition (Rattus norvegicus [3]): 48%; Ratio IC50 (Rattus norvegicus [4]): > 146; Activity (umolequiv/umol) [5]: 1.3
47 | CCNC(=O)Nc1cc(-n2cccn2)ncn1 | 22.1% | – | –
48 | CCNC(=S)Nc1cc(-n2ccnc2)nc(C)n1 | 71.4% | 8720 nM | –
49 | CC(C)(C)NC(=S)Nc1cc(-n2cccn2)ncn1 | 11.3% | – | –
50 | CCNC(=S)Nc1ccnc(-n2ccnc2)n1 | 46.6% | > 40000 nM | –
51 | CCNC(=S)Nc1cc(-n2cnc(CN3CCN(C)CC3)c2)ncn1 | – | 103 nM | IC50 [2]: > 40 µM; inhibition (Rattus norvegicus [3]): 10.8%; Ratio IC50 (Rattus norvegicus [4]): > 388; Activity (umolequiv/umol) [5]: 1.23; Papp at 10 h [6]: 1.95 ×10⁻⁶ cm/s
52 | CCNC(=S)Nc1cc(-n2cnc3ccccc32)ncn1 | 66.2% | 7840 nM | –
53 | CCNC(=S)Nc1cc(-n2cccn2)ncn1 | 77.3% | 8140 nM | –
54 | CCNC(=S)Nc1cc(-n2ccnn2)ncn1 | 61.5% | 14400 nM | –
55 | CCNC(=S)Nc1cc(-n2cnc(CNC)c2)ncn1 | – | 251 nM | IC50 [2]: > 40 µM; inhibition (Rattus norvegicus [3]): 27.3%; Ratio IC50 (Rattus norvegicus [4]): > 159; Activity (umolequiv/umol) [5]: 1.32
56 | CCNC(=S)Nc1cc(-n2cnc(CNC3CCCCC3)c2)ncn1 | – | 424 nM | –
57 | CCNC(=S)Nc1cc(-n2cnc(CN3CCCCC3)c2)ncn1 | – | 111 nM | IC50 [2]: 18.2 µM; Ratio IC50 (Rattus norvegicus [4]): 164; Activity (umolequiv/umol) [5]: 1.27; Papp at 10 h [6]: 5 ×10⁻⁶ cm/s
58 | CCNC(=S)Nc1cc(-n2cncn2)ncn1 | 66.6% | 1050 nM | –
59 | CCNc1cc(-n2cccn2)ncn1 | 32.1% | – | –
